{"source": "patent US20090246787A1", "about": "“METHOD AND APPARATUS FOR DETERMINING CHEMOSENSITIVITY” (SYSMEX CORPORATION, priority 2008, published 2009)", "key": {"CAMA-1 cells": {"test_system": "CAMA-1 cells", "experiment": "MTT living-cell assay, doxorubicin IC50", "type": "cell-based", "conditions": "Homo sapiens, 72 h, cultured 3 days with doxorubicin, MTT method, read-out: IC50 class (chemosensitivity estimated by IC50)", "description": "CAMA-1 cells were cultured in 5 vol % CO2 at 37° C., in an Eagle minimum essential medium containing Earle's BSS, 2 mM of L-glutamine, 1.0 mM of sodium pyruvate, 0.1 mM of nonessential amino acids, 1.5 g/L of sodium bicarbonate and 10% by mass of fetal bovine serum.\n(§1) Each of the breast cancer cell lines, that is, HS 578T cells, MDA-MB-435S cells, BT20 cells, CAMA-1 cells, T47D cells, MDA-MB-361 cells, UACC893 cells and BT474 cells, was diluted stepwise to produce 7 serial cell dilutions.\n(§2) The number of living cells in each of the cultures thus obtained was determined by an MTT method of using 3-(4,5-dimethylthiazol-2-yl)-2,5-diphenyl-2H-tetrazolium bromide. The number of living cells to be inoculated was established for each type of cell so as to enable the influence of the drug to be evaluated in the measurement range where the primary correlation between the number of cells in the serial dilution to be inoculated and the determined number of the living cells was kept high.\nThereafter, the number of living cells in each of the cultures thus obtained was measured by the MTT method of using 3-(4,5-dimethylthiazol-2-yl)-2,5-diphenyl-2H-tetrazolium bromide. This measurement was conducted 4 times. […]"}, "MDA-MB-435S cells": {"test_system": "MDA-MB-435S cells", "experiment": "MTT living-cell assay, doxorubicin IC50", "type": "cell-based", "conditions": "Homo sapiens, 72 h, cultured 3 days with doxorubicin, MTT method, read-out: IC50 class (chemosensitivity estimated by IC50)"}, "MDA-MB-361 cells": {"test_system": "MDA-MB-361 cells", "experiment": "MTT living-cell assay, doxorubicin IC50", "type": "cell-based", "conditions": "Homo sapiens, 72 h, cultured 3 days with doxorubicin, MTT method, read-out: IC50 class (chemosensitivity estimated by IC50)"}, "BT20 cells": {"test_system": "BT20 cells", "experiment": "MTT living-cell assay, doxorubicin IC50", "type": "cell-based", "conditions": "Homo sapiens, BT-20, 72 h, cultured 3 days with doxorubicin, MTT method, read-out: IC50 class (chemosensitivity estimated by IC50)", "description": "(§3) Human breast cancer cell lines, that is, HS 578T cells (ATCC HTB-126R), MDA-MB-435s cells (ATCC HTB-129), BT20 cells (ATCC HTB-19), CAMA-1 cells (ATCC HTB-21), T47D cells (ATCC HTB-133), MDA-MB-361 cells (ATCC HTB-27), UACC893 cells (ATCC CRL-1902) and BT474 cells (ATCC HTB-20) were purchased from American Type Culture Collection (ATCC) and cultured under culture conditions recommended by ATCC, as follow.\nBT-20 cells were cultured in 5 vol % CO2 at 37° C., in an Eagle minimum essential medium containing Earle's BSS, 2 mM of L-glutamine, 1.0 mM of sodium pyruvate, 0.1 mM of nonessential amino acids, 1.5 g/L of sodium bicarbonate and 10% by mass of fetal bovine serum. […]\nas §2\n(§4) Thereafter, the number of living cells in each of the cultures thus obtained was measured by the MTT method of using 3-(4,5-dimethylthiazol-2-yl)-2,5-diphenyl-2H-tetrazolium bromide. […]"}, "T47D cells": {"test_system": "T47D cells", "experiment": "MTT living-cell assay, doxorubicin IC50", "type": "cell-based", "conditions": "Homo sapiens, 72 h, cultured 3 days with doxorubicin, MTT method, read-out: IC50 class (chemosensitivity estimated by IC50)", "description": "as §3\nT-47D cells were cultured in 5 vol % CO2 at 37° C., in an RPMI 1640 medium containing 2 mM of L-glutamine, 1.0 mM of HEPES, 1.0 mM of sodium pyruvate, 4.5 g/L of glucose, 1.5 g/L of sodium bicarbonate, 10% by mass of fetal bovine serum and 0.2 unit/mL of bovine insulin. […]\nas §2, §4"}, "HS 578T cells": {"test_system": "HS 578T cells", "experiment": "MTT living-cell assay, doxorubicin IC50", "type": "cell-based", "conditions": "Homo sapiens, 72 h, cultured 3 days with doxorubicin, MTT method, read-out: IC50 class (chemosensitivity estimated by IC50)", "description": "as §3\nHS 578T cells were cultured in 5 vol % CO2 at 37° C., in a Dulbecco's modified Eagle medium containing 4 mM of L-glutamine, 10% by mass of fetal bovine serum and 0.01 mg/L of bovine insulin, with glucose at a final concentration of 4.5 g/L and sodium bicarbonate at a final concentration of 1.5/L. […]\nas §2, §4"}, "BT474 cells": {"test_system": "BT474 cells", "experiment": "MTT living-cell assay, doxorubicin IC50", "type": "cell-based", "conditions": "Homo sapiens, BT-474, 72 h, cultured 3 days with doxorubicin, MTT method, read-out: IC50 class (chemosensitivity estimated by IC50)", "description": "BT-474 cells were cultured in 5 vol % CO2 at 37° C., in a Dulbecco's modified medium containing 10% by mass of fetal bovine serum.\nas §1, §2\nThereafter, the number of living cells in each of the cultures thus obtained was measured by the MTT method of using 3-(4,5-dimethylthiazol-2-yl)-2,5-diphenyl-2H-tetrazolium bromide. This measurement was conducted 4 times.\nOn the basis of the determined number of living cells, the concentration of doxorubicin (IC50) at which the ratio of the number of living cells in the culture not treated with doxorubicin to the number of living cells in the culture treated with doxorubicin became 50% was determined."}, "[1]": {"conditions": "used generally in chemotherapy; cited from earlier work"}, "CDK1 [2]": {"test_system": "CDK1", "conditions": "100 nM doxorubicin, 24 hours"}, "CDK1 [3]": {"test_system": "CDK1", "conditions": "100 nM doxorubicin, 24 hours", "remark": "listed apart in the source"}, "UACC893 cells": {"test_system": "UACC893 cells", "experiment": "MTT living-cell assay, doxorubicin IC50", "type": "cell-based", "conditions": "Homo sapiens, UACC-893, 72 h, cultured 3 days with doxorubicin, MTT method, read-out: IC50 class (chemosensitivity estimated by IC50)"}}, "note": "Like-named read-outs stand apart in the source and are kept apart here.", "data": [{"compound": "COc1cccc2c1C(=O)c1c(O)c3c(c(O)c1C2=O)C[C@@](O)(C(=O)CO)C[C@@H]3O[C@H]1C[C@H](N)[C@H](O)[C@H](C)O1", "note": "[doxorubicin]", "values": [{"measurement": "IC50", "setting": "CAMA-1 cells", "value": "< 200", "unit": "nM"}, {"measurement": "IC50", "setting": "MDA-MB-435S cells", "value": "< 200", "unit": "nM"}, {"measurement": "IC50", "setting": "MDA-MB-361 cells", "value": "> 200", "unit": "nM"}, {"measurement": "IC50", "setting": "BT20 cells", "value": "< 200", "unit": "nM"}, {"measurement": "IC50", "setting": "T47D cells", "value": "> 200", "unit": "nM"}, {"measurement": "IC50", "setting": "HS 578T cells", "value": "< 200", "unit": "nM"}, {"measurement": "IC50", "setting": "BT474 cells", "value": "> 200", "unit": "nM"}, {"measurement": "effective blood concentration", "setting": "[1]", "value": "about 200 nM"}, {"measurement": "difference of CDK1 activity level (not treated − treated with doxorubicin)", "setting": "CDK1 [2]; BT20 cells", "value": "great difference"}, {"measurement": "ratio of CDK1 activity level (treated with doxorubicin / not treated)", "setting": "CDK1 [2]; BT20 cells", "value": "low"}, {"measurement": "difference of CDK1 activity level (not treated − treated with doxorubicin)", "setting": "CDK1 [2]; BT474 cells", "value": "a little difference, or a minus difference"}, {"measurement": "ratio of CDK1 activity level (treated with doxorubicin / not treated)", "setting": "CDK1 [2]; BT474 cells", "value": "high"}, {"measurement": "difference of CDK1 activity level (not treated − treated with doxorubicin)", "setting": "CDK1 [2]; CAMA-1 cells", "value": "great difference"}, {"measurement": "ratio of CDK1 activity level (treated with doxorubicin / not treated)", "setting": "CDK1 [2]; CAMA-1 cells", "value": "low"}, {"measurement": "difference of CDK1 activity level (not treated − treated with doxorubicin)", "setting": "CDK1 [2]; HS 578T cells", "value": "great difference"}, {"measurement": "ratio of CDK1 activity level (treated with doxorubicin / not treated)", "setting": "CDK1 [2]; HS 578T cells", "value": "low"}, {"measurement": "difference of CDK1 activity level (not treated − treated with doxorubicin)", "setting": "CDK1 [2]; MDA-MB-361 cells", "value": "a little difference, or a minus difference"}, {"measurement": "ratio of CDK1 activity level (treated with doxorubicin / not treated)", "setting": "CDK1 [2]; MDA-MB-361 cells", "value": "high"}, {"measurement": "difference of CDK1 activity level (not treated − treated with doxorubicin)", "setting": "CDK1 [2]; MDA-MB-435S cells", "value": "great difference"}, {"measurement": "ratio of CDK1 activity level (treated with doxorubicin / not treated)", "setting": "CDK1 [2]; MDA-MB-435S cells", "value": "low"}, {"measurement": "difference of CDK1 activity level (not treated − treated with doxorubicin)", "setting": "CDK1 [2]; T47D cells", "value": "a little difference, or a minus difference"}, {"measurement": "ratio of CDK1 activity level (treated with doxorubicin / not treated)", "setting": "CDK1 [2]; T47D cells", "value": "high"}, {"measurement": "difference of CDK1 activity level (not treated − treated with doxorubicin)", "setting": "CDK1 [2]; UACC893 cells", "value": "a little difference, or a minus difference"}, {"measurement": "ratio of CDK1 activity level (treated with doxorubicin / not treated)", "setting": "CDK1 [2]; UACC893 cells", "value": "high"}, {"measurement": "difference of CDK1 specific activity (not treated − treated with doxorubicin)", "setting": "CDK1 [3]; BT20 cells", "value": "high"}, {"measurement": "ratio of CDK1 specific activity (treated with doxorubicin / not treated)", "setting": "CDK1 [3]; BT20 cells", "value": "low"}, {"measurement": "difference of CDK1 specific activity (not treated − treated with doxorubicin)", "setting": "CDK1 [3]; BT474 cells", "value": "a little difference, or a minus difference"}, {"measurement": "ratio of CDK1 specific activity (treated with doxorubicin / not treated)", "setting": "CDK1 [3]; BT474 cells", "value": "high"}, {"measurement": "difference of CDK1 specific activity (not treated − treated with doxorubicin)", "setting": "CDK1 [3]; CAMA-1 cells", "value": "high"}, {"measurement": "ratio of CDK1 specific activity (treated with doxorubicin / not treated)", "setting": "CDK1 [3]; CAMA-1 cells", "value": "low"}, {"measurement": "difference of CDK1 specific activity (not treated − treated with doxorubicin)", "setting": "CDK1 [3]; HS 578T cells", "value": "high"}, {"measurement": "ratio of CDK1 specific activity (treated with doxorubicin / not treated)", "setting": "CDK1 [3]; HS 578T cells", "value": "low"}, {"measurement": "difference of CDK1 specific activity (not treated − treated with doxorubicin)", "setting": "CDK1 [3]; MDA-MB-361 cells", "value": "a little difference, or a minus difference"}, {"measurement": "ratio of CDK1 specific activity (treated with doxorubicin / not treated)", "setting": "CDK1 [3]; MDA-MB-361 cells", "value": "high"}, {"measurement": "difference of CDK1 specific activity (not treated − treated with doxorubicin)", "setting": "CDK1 [3]; MDA-MB-435S cells", "value": "high"}, {"measurement": "ratio of CDK1 specific activity (treated with doxorubicin / not treated)", "setting": "CDK1 [3]; MDA-MB-435S cells", "value": "low"}, {"measurement": "difference of CDK1 specific activity (not treated − treated with doxorubicin)", "setting": "CDK1 [3]; T47D cells", "value": "a little difference, or a minus difference"}, {"measurement": "ratio of CDK1 specific activity (treated with doxorubicin / not treated)", "setting": "CDK1 [3]; T47D cells", "value": "high"}, {"measurement": "difference of CDK1 specific activity (not treated − treated with doxorubicin)", "setting": "CDK1 [3]; UACC893 cells", "value": "a little difference, or a minus difference"}, {"measurement": "ratio of CDK1 specific activity (treated with doxorubicin / not treated)", "setting": "CDK1 [3]; UACC893 cells", "value": "high"}, {"measurement": "IC50", "setting": "UACC893 cells", "value": "> 200", "unit": "nM"}]}]}
